The EC50 is the concentration that produces a half-maximal response. In general, AUC(0-inf) refers to the area under the concentration-time curve extrapolated to infinity. Read a low AUC(0-inf) as low exposure. Broadly, the AUC(0-t) is exposure summed from dosing to a finite time, without extrapolation to infinity. A higher AUC(0-t) goes with more exposure. What is called Cmax is the maximum level reached in the sampled fluid or tissue. For orientation: Tmax means the time at which the peak concentration occurs. For orientation: half-life means how long it takes for the measured level to halve. Lower therefore signals rapid decline.

From patent EP4755885A1 (Shanghai Hansoh Biomedical Co., Ltd., priority 2023, dated 2025) come the findings set out here.

Series [1] addresses T1, human GLP-1 receptor (Homo sapiens, UniProt P43220).
T1 construct: expressed in transfected cells
Put plainly: cAMP production in cell line stably transformed with human GLP1 receptor, 30 min co-incubation (HTRF). It is filed as cell-based. The settings on record: CHO-K1/GLP-1R/CRE-luc cells, stimulation for 0.5 h, read-out: EC50. As to the method:
(§1) The purpose of this assay example is to test the ability of the compound to activate the human GLP-1 receptor on cell surface. The EC50 for stimulated cAMP production after activation characterizes the ability of the compound to activate the human GLP-1 receptor.
In this experiment, the compound and cells were co-incubated for 30 min.
(§2) Frozen cell line CHO-K1/GLP-1R/CRE-luc stably transformed with human GLP1 receptor was removed from a liquid nitrogen tank, and was placed in a 37°C water bath for rapid thawing. The cells were resuspended in DMEM/F12 medium, and after centrifugation, were washed once. The cells were resuspended in an experimental buffer, i.e., DMEM/F12 medium containing 0.1% casein. After centrifugation, cell density was adjusted using the experimental buffer. The cells were plated onto a 384-well plate at a density of 1500 cells/5 µL/well. Then, each well was added with 2.5 µL of IBMX working solution prepared with the buffer, the final concentration of IBMX being 0.5 mM, and 2.5 µL of a serially diluted compound sample (starting from […], 3-fold dilution, 12 concentrations). The plate was centrifuged at 1000 rpm for 1 min, and was stood for incubation at 37°C for 0.5 h. Determination was performed using the Cisbio cAMP - Gs Dynamic kit. cAMP-d2 and anti-cAMP-Eu3+-Cryptate were diluted 18-fold and 20-fold respectively with cAMP Lysis & Detection Buffer, and were respectively mixed homogeneously. Each well was added with 5 µL of diluted cAMP-d2 solution, and the plate was centrifuged at 1000 rpm for 1 min, and shaken for 30 seconds for homogeneous mixing. Then, each well was added with 5 µL of diluted anti-cAMP-Eu3+-Cryptate solution, and the plate was centrifuged at 1000 rpm for 1 min and was incubated in the dark at room temperature for 1 h. HTRF signals were read using the Biotek Synergy H1 microplate reader, the excitation wavelength being 320 nm and the emission wavelengths being 620 nm and 665 nm.
(§3) The signal-to-signal ratio was calculated (665 nm/620 nm * 10,000). Nonlinear fitting between the signal-to-signal ratio and the sample concentration was performed in GraphPad Prism 10 using a four-parameter equation to obtain the EC50 value.
In general terms: Cyclic AMP is a second messenger, typically raised through Gs and lowered through Gi signalling.

The nature of series [2]: Pharmacokinetic evaluation in rats, oral administration. Details: species or system SD rats. The settings on record: rat, in vivo, p.o. 5 mg/kg, plasma; for MRT inf: read-out: MRT 0-∞. As to the method: SD rats were used as test animals to study the pharmacokinetic behavior of the following example compounds, administered orally at a dose of 5 mg/kg, in the plasma of the rats. SD rats, 3 per group, male. […] An example compound was weighed and added to a 4 mL glass bottle, and the solution was added. […] Sonication was performed for 10 min to obtain a colorless clear solution having a concentration of 0.5 mg/mL. […] The blood samples were placed in EDTA-K2 tubes and centrifuged at 6000 rpm at 4°C for 6 min to separate plasma, which was stored at -80°C. […] • Liquid phase conditions: Shimadzu LC-20AD pump • Mass spectrometry conditions: AB Sciex API 4000 mass spectrometer • Chromatographic column: phenomenex Gemiu 5 um C18 50 × 4.6 mm • Mobile phase: Solution A was 0.1% formic acid aqueous solution, and Solution B was methanol • Flow rate: 1.0 mL/min • Elution time: 0-4.0 min, the eluent was as follows: […] The results of the rat pharmacokinetic experiment are shown in the table below: Table 5: Pharmacokinetic parameters of oral administration of the compound of the present invention in rats

Series [3] can be described thus: Pharmacokinetic evaluation in mice, oral administration. It is filed as in vivo, Balb/c mice. The settings on record: p.o. 5 mg/kg, plasma; for AUC(0-inf) / AUC(0-t) / Cmax / Tmax / MRT inf: mouse, in vivo, po; for MRT inf: read-out: MRT 0-∞. As to the method:
Balb/c mice were used as test animals to study the pharmacokinetic behavior of the compound of the present invention in mice (plasma) at a dose of 5 mg/kg administered orally and 1 mg/kg administered intravenously.
Balb/c mice, 3 per group, male.
(§4) Preparation of drug for oral administration: 10%PEG400/10%PG/80% glycine buffer (100 mM glycine, 64 Mm NaOH, […]) buffer.
10 ml of PEG400, 10 ml of PG, and 80 ml of (100 mM glycine, 64 Mm NaOH, pH = 9) were measured into a 100 ml volumetric flask, vortexed, mixed homogeneously, and sonicated to obtain a clear solution.
Single PK: An example compound was weighed into a 4 mL glass bottle. The solution was added, and sonication was performed for 10 min to obtain a colorless clear solution having a concentration of 0.5 mg/mL.
The solution was added, and sonication was performed for 10 min to obtain a colorless clear solution having a concentration of 0.5 mg/mL.
Three Balb/c mice, male, respectively administered p.o. after fasting overnight, at a dose of 5 mg/kg and in an administration volume of 10 mL/kg.
The blood samples were placed in EDTA-K2 anticoagulant tubes and centrifuged at 6000 rpm at 4°C for 6 min to separate plasma, which was stored at -80°C. The mice were fed 4 h after administration.
(§5) • 1) 40 µL of a plasma sample was added with 160 µL of acetonitrile for precipitation, and after mixing, the mixture was centrifuged at 3500 × g for 5 to 20 min. • 2) The supernatant solution after treatment was taken for LC/MS/MS analysis of the concentration of the test compound. The LC/MS/MS analysis instrument was AB Sciex API 4000 Qtrap.
• Liquid phase condition: Shimadzu LC-20AD pump • Chromatographic column: Agilent ZORBAX XDB-C18 (50×2.1 mm, 3.5 µm) Mobile phase: Solution A was 0.1% formic acid aqueous solution, and Solution B was acetonitrile • Flow rate: 0.4 mL/min • Elution time: 0-4.0 min, the eluent was as follows:
Main pharmacokinetic parameters were calculated using WinNonlin 6.1.

Series [4] in a line: Pharmacokinetic evaluation in Macaca fascicularis monkeys, oral administration. It is filed as in vivo. To be noted: cynomolgus monkey, p.o. 5 mg/kg, plasma. On the procedure:
Macaca fascicularis monkeys were used as test animals to study the pharmacokinetic behavior of the compound of the present invention, administered orally at a dose of 5 mg/kg, in Macaca fascicularis monkeys (plasma).
Macaca fascicularis monkeys, 3 per group, male.
as §4
Single PK: The compound of the present invention was weighed into a 100 mL glass bottle, and the solution was added. The pH was first adjusted with 1 M NaOH until the compound dissolves to obtain a clear solution, and then the pH was readjusted to pH 9.0-9.5 with 1 M HCl. Sonication was performed for 10 min to obtain a colorless clear solution having a concentration of 1 mg/mL.
Three Macaca fascicularis monkeys, male, respectively administered p.o. after fasting overnight, at a dose of 5 mg/kg and in an administration volume of 5 mL/kg.
Blood collection: 0.3 mL of blood was collected from the forelimb vein of the Macaca fascicularis monkeys before administration and at 0.25, 0.5, 1, 2, 4, 6, 8, and 24 h after administration. The blood samples were placed in EDTA-K2 anticoagulant tubes and centrifuged at 6000 rpm at 4°C for 6 min to separate plasma, which was stored at -80°C. The Macaca fascicularis monkeys were fed 4 h after administration.
as §5
(§6) • Liquid phase condition: Shimadzu LC-20AD pump • Chromatographic column: Agilent ZORBAX XDB-C18 (50×2.1 mm, 3.5 µm) Mobile phase: Solution A was 0.1% formic acid aqueous solution, and Solution B was acetonitrile • Flow rate: 0.4 mL/min • Elution time: 0-4.0 min, the eluent was as follows: […]

The nature of series [5]: Pharmacokinetic evaluation in beagles, oral administration. It is filed as in vivo. The settings on record: dog, po, p.o. 2 mg/kg, plasma. On the procedure:
Beagles were used as test animals to study the pharmacokinetic behavior of the compound of the present invention, administered orally at a dose of 2 mg/kg, in beagles (plasma).
Beagles, 3 per group, male.
as §4
Single PK: The compound of the present invention was weighed into a 100 mL glass bottle, and the solution was added. The pH was first adjusted with 1 M NaOH until the compound dissolves to obtain a clear solution, and then the pH was readjusted to pH 9.0-9.5 with 1 M HCl. Sonication was performed for 10 min to obtain a colorless clear solution having a concentration of 0.4 mg/mL.
Three beagles, male, respectively administered p.o. after fasting overnight, at a dose of 2 mg/kg and in an administration volume of 5 mL/kg.
Blood collection: 0.3 mL of blood was collected from the forelimb vein of the beagles before administration and at 0.25, 0.5, 1, 2, 4, 6, 8, and 24 h after administration. The blood samples were placed in EDTA-K2 anticoagulant tubes and centrifuged at 6000 rpm at 4°C for 6 min to separate plasma, which was stored at -80°C. The beagles were fed 4 h after administration.
as §5, §6

For series [6], the target named is T1, human GLP-1 receptor. Nature of the series: cAMP production in cell line stably transformed with human GLP1 receptor, 2 h co-incubation (HTRF). It is filed as cell-based. To be noted: CHO-K1/GLP-1R/CRE-luc cells, stimulation for 2 h, read-out: EC50. On the procedure:
as §1
In this experiment, the compound and cells were co-incubated for 2 h.
as §2, with “for 2” for “for 0.5”
as §3

The mark [7] stands for this setting: not marked single PK (cassette PK).

T1 sequence (P43220 24-463): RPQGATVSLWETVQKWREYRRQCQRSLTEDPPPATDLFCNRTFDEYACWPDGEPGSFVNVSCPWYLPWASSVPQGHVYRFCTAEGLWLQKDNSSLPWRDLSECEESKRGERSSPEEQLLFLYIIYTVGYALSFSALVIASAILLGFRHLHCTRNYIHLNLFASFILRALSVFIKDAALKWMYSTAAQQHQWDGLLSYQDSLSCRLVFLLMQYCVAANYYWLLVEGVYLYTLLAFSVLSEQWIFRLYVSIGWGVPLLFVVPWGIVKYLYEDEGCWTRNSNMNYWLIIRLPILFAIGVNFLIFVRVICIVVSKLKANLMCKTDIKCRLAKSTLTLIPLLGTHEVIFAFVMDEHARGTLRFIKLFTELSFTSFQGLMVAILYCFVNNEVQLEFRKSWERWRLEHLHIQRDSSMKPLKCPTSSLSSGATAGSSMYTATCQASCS

`Cc1cc(-n2nc3c(c2-n2ccn(-c4ccc(N=S(C)(C)=O)cc4F)c2=O)[C@H](C)N(C(=O)c2cc4cc([C@H]5CCOC(C)(C)C5)ccc4n2[C@@]2(c4noc(=O)[nH]4)C[C@@H]2C)CC3)cc(C)c1F` [Example 1]: the EC50 at human GLP-1 receptor [1] is 0.37 nM.
Take `Cc1cc(-n2nc3c(c2-n2ccn(-c4ccc5c(cnn5C5CC5)c4F)c2=O)[C@H](C)N(C(=O)c2cc4cc([C@H]5CCOC(C)(C)C5)ccc4n2[C@@]2(c4noc(=O)[nH]4)C[C@@H]2C)CC3)cc(C)c1F` [Example 25]: in series [2], the AUC(0-inf) turned out to be 37300 ng·h/mL, the exposure AUC(0-t) turned out to be 28500 ng·h/mL, the Cmax stood at 1960 ng/mL and the Tmax is 6 h. Further, in series [2], the half-life is 10.5 h and the MRT inf amounted to 16.4 h. In series [3] (setting [7]), the AUC(0-inf) came to 39000 ng·h/mL, the AUC(0-t) came out at 30500 ng·h/mL, the peak level (Cmax) was 2060 ng/mL and the Tmax came out at 2 h. In series [3] (setting [7]), the MRT inf came out at 15.2 h and the tl/2 is recorded as 10.7 h.
On to `Cc1cc(-n2nc3c(c2-n2ccn(-c4ccc5c6c(nn5C)CCCOc46)c2=O)[C@H](C)N(C(=O)c2cc4cc([C@H]5CCOC(C)(C)C5)ccc4n2[C@@]2(c4noc(=O)[nH]4)C[C@@H]2C)CC3)cc(C)c1F` [Example 35], for which, in series [2], the AUC(0-inf) came out at 14100 ng·h/mL, the AUC(0-t) came out at 12400 ng·h/mL, the concentration peaked (Cmax) at 1110 ng/mL and the time of peak concentration (Tmax) is 4.7 h. In series [2], the half-life is 7.2 h and the MRT inf is 11.5 h. In series [3] (single PK), the AUC(0-inf) came to 41000 ng·h/mL, the AUC(0-t) is 32900 ng·h/mL, the Cmax came out at 3070 ng/mL and the Tmax is 1.2 h. In series [3] (single PK), the MRT inf was 13.9 h and the tl/2 amounted to 10.3 h.
For the compound `Cc1cc(-n2nc3c(c2-n2ccn(-c4ccc5c(cnn5C5CC5)c4F)c2=O)[C@H](C)N(C(=O)c2cc4cc([C@H]5CCOC(C)(C)C5)ccc4n2[C@@]2(c4noc(=O)[nH]4)[C@@H]4COC[C@@H]42)CC3)cc(C)c1F` [Example 65-1], in series [3] (single PK), the AUC(0-inf) was found to be 10900 ng·h/mL, the AUC(0-t) came out at 10600 ng·h/mL, the concentration peaked (Cmax) at 1220 ng/mL and the Tmax amounted to 2.7 h. Also, in series [3] (single PK), the MRT inf was found to be 6.5 h and the tl/2 was determined as 4.8 h. In series [4], the AUC(0-inf) amounted to 30800 ng·h/mL, the AUC(0-t) stood at 29700 ng·h/mL, the peak concentration (Cmax) was 4460 ng/mL and the time to peak (Tmax) is 2 h. In addition, in series [4], the half-life was 5.6 h. For the same compound, in series [4] (read-out: MRT 0-∞), the MRT inf is 7.5 h. In series [5], this compound showed an AUC(0-inf) of 43900 ng·h/mL, an AUC(0-t) at 24 h of 41000 ng·h/mL and a half-life of 5.9 h. The Cmax in series [5] (read-out: Cmax) was found to be 4360 ng/mL. Further, the MRT inf in series [5] (read-out: MRT 0-∞) amounted to 8.1 h. Further, in series [5] (read-out: tmax), the Tmax was determined as 2.8 h. Also, the half-maximal effective concentration (EC50) at human GLP-1 receptor [6] was determined as 0.06 nM.
